This note sets out measurements from ChEMBL document CHEMBL4613271, “Application of Atypical Acetyl-lysine Methyl Mimetics in the Development of Selective Inhibitors of the Bromodomain-Containing Protein 7 (BRD7)/Bromodomain-Containing Protein 9 (BRD9) Bromodomains” (J Med Chem, 2020).

Converted amounts (≈) assume the structure as drawn. The source made the active and inactive calls. The rule behind the calls is not given here. Bounds are passed on as bounds.

The target of data set [1] is T1, Bromodomain-containing protein 7 (Homo sapiens, UniProt Q9NPI1).
T1 sequence (Q9NPI1 whole entry): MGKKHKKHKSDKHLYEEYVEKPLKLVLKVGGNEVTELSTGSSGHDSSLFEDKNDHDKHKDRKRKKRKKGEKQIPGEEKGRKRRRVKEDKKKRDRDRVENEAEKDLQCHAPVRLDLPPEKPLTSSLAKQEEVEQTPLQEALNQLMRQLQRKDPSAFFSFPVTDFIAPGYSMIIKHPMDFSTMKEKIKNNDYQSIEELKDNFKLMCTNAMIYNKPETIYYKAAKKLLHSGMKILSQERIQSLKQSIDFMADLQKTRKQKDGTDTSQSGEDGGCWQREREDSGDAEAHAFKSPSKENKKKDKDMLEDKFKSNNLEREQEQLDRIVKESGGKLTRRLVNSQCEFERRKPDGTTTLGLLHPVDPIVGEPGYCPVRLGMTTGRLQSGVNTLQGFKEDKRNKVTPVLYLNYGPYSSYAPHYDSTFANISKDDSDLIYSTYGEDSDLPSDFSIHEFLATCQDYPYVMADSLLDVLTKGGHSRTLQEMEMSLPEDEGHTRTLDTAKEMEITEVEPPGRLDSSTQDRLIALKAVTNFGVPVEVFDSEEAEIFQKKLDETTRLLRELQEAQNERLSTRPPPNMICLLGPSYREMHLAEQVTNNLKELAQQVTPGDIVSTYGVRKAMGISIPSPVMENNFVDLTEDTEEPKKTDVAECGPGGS
The experiment in a line: Binding affinity to human partial length BRD7 (L125 to R254 residues) expressed in mammalian expression system by BROMOscan assay.

The nature of data set [2]: Solubility of compound by CLND method. The format is physicochemical.
Data set [3] concerns the target T2, Bromodomain-containing protein 4 (Homo sapiens, UniProt O60885). The experiment in a line: Binding affinity to BRD4 (1) (unknown origin) N-terminal bromodomain by TR-FRET assay. On the technique in general: In TR-FRET formats the signal depends on donor and acceptor labels being close together.
The nature of data set [4]: Permeability by PAMPA. It is filed as ADME. Particulars: read-out: permeability.
The target of data set [5] is T3, Bromodomain-containing protein 9 (Homo sapiens, UniProt Q9H8M2).
T3 sequence (Q9H8M2 whole entry): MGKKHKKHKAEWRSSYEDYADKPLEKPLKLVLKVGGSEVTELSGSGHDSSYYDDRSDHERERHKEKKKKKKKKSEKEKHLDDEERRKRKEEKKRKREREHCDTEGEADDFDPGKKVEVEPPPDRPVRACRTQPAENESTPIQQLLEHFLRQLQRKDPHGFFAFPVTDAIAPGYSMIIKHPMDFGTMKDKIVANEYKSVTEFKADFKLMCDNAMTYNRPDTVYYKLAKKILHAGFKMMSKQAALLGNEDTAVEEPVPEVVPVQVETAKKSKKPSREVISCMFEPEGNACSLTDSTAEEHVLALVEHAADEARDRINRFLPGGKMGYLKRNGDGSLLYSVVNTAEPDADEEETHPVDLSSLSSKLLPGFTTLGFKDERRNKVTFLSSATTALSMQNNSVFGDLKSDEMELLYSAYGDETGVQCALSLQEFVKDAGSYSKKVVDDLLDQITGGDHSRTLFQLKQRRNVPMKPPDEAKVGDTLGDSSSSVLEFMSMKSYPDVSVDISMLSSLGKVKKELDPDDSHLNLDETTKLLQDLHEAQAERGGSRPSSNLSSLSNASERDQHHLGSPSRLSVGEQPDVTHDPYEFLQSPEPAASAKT
The experiment in a line: Binding affinity to BRD9 (unknown origin) N-terminal bromodomain by TR-FRET assay.

The nature of data set [6]: Chromatographic hydrophobicity index, logD of the compound at pH 7.4 by HPLC analysis. The format is physicochemical. Particulars: buffer.
Data set [7] addresses SWI/SNF-related matrix-associated actin-dependent regulator of chromatin subfamily A member 2 (Homo sapiens) (UniProt P51531). Nature of the data set: Binding affinity to SMARCA2 in human HuT78 cells nuclear and chromatin extracts at 10 uM incubated for 45 mins by mass spectrometry based chemoproteomic binding assay. The format is cell-based.
In a further data set the target is T4, Peregrin (Homo sapiens, UniProt P55201).
T4 sequence (P55201 whole entry): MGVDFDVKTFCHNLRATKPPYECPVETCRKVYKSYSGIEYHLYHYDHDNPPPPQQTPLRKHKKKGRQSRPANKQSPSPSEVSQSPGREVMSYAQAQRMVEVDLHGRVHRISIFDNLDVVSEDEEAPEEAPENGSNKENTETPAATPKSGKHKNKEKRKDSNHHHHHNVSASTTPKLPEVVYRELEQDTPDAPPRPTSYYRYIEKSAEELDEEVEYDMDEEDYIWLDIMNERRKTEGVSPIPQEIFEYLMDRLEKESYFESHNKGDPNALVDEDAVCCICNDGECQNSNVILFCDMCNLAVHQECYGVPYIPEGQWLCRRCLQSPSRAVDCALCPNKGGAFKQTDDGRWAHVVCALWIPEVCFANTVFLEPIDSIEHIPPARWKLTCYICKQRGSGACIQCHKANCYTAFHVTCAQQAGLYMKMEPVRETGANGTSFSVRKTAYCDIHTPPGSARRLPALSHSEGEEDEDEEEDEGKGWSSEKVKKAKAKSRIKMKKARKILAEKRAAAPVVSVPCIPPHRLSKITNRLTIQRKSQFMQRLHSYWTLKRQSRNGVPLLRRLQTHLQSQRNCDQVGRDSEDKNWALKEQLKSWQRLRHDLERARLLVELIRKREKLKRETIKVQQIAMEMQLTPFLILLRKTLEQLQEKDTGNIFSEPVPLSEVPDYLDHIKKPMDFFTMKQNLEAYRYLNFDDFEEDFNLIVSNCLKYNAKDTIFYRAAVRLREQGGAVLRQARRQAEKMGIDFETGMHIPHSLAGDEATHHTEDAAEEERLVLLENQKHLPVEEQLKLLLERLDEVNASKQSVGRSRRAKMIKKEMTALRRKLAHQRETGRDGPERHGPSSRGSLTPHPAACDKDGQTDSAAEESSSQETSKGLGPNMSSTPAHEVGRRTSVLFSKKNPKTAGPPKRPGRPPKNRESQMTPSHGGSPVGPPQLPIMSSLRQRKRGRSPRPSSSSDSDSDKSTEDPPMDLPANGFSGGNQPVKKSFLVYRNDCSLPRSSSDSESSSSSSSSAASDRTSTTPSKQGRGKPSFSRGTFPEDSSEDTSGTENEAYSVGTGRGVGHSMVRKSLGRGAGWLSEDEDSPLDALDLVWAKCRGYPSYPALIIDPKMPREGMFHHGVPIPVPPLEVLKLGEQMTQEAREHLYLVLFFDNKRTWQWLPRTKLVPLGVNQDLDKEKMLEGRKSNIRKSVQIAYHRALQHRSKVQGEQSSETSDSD
The experiment in a line: Binding affinity to human partial length BRPF1 (E627 to G740 residues) expressed in bacterial expression system by BROMOscan assay.

The target of data set [8] is SWI/SNF-related matrix-associated actin-dependent regulator of chromatin subfamily A member 4 (Homo sapiens) (UniProt P51532). Nature of the data set: Binding affinity to SMARCA4 in human HuT78 cells nuclear and chromatin extracts at 10 uM incubated for 45 mins by mass spectrometry based chemoproteomic binding assay. The format is cell-based.
Chain of SWI/SNF-related matrix-associated actin-dependent regulator of chromatin subfamily A member 4 (Homo sapiens) (P51532 whole entry): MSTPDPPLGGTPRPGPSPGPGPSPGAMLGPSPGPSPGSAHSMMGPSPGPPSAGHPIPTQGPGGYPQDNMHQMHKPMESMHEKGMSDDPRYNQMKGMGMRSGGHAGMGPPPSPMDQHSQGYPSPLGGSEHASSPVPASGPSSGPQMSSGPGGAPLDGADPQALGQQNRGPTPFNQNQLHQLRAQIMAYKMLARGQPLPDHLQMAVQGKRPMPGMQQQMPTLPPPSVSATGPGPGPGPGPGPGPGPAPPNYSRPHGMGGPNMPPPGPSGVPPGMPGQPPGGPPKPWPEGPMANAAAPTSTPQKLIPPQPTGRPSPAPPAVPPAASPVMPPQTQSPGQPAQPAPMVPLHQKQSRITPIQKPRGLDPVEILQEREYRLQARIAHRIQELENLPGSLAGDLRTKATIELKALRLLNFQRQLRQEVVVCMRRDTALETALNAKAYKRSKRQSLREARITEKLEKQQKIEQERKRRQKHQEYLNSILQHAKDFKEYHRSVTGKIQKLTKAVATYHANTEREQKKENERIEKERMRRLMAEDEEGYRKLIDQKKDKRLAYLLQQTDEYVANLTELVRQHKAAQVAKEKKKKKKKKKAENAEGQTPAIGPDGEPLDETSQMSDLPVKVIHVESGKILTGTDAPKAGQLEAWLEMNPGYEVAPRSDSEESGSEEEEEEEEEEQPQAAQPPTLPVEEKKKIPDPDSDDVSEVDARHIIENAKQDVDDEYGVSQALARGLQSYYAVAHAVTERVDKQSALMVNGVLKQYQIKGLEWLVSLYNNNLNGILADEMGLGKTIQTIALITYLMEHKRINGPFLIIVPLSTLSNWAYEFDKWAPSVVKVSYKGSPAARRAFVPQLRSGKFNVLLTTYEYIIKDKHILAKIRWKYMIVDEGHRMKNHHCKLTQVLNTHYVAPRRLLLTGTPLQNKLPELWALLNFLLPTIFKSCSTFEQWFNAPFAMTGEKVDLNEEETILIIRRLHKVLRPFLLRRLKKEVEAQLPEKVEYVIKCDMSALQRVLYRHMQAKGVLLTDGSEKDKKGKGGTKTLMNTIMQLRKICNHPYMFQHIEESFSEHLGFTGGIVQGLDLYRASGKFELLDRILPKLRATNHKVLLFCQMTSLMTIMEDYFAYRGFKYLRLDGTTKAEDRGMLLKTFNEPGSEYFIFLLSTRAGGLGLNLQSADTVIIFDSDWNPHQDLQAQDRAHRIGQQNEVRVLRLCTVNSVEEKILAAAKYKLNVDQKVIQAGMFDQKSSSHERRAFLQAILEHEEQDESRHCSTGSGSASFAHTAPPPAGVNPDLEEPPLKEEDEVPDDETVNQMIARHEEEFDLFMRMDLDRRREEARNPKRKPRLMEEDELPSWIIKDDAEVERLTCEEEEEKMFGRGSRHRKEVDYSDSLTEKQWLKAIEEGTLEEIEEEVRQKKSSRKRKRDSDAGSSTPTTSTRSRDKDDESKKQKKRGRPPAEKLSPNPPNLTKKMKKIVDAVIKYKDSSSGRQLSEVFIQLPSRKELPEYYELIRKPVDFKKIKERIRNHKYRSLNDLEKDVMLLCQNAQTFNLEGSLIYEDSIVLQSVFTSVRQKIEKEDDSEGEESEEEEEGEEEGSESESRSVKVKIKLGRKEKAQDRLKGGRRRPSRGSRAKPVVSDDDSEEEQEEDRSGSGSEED
Data set [9] has as its target Protein polybromo-1 (Homo sapiens) (UniProt Q86U86). The experiment in a line: Binding affinity to PBRM1 in human HuT78 cells nuclear and chromatin extracts at 10 uM incubated for 45 mins by mass spectrometry based chemoproteomic binding assay. It is filed as cell-based.
For data set [10], the target named is B-cell CLL/lymphoma 7 protein family member B (Homo sapiens) (UniProt Q9BQE9). The experiment in a line: Binding affinity to BCL7B in human HuT78 cells nuclear and chromatin extracts at 10 uM incubated for 45 mins by mass spectrometry based chemoproteomic binding assay. The format is cell-based.
Data set [11] deals with T2, Bromodomain-containing protein 4. The experiment in a line: Binding affinity to human partial length BRD4 (1) (N44 to E168 residues) expressed in bacterial expression system by BROMOscan assay.
The target of data set [12] is T5, Bromodomain-containing protein 7 (Homo sapiens) (UniProt Q9NPI1).
T5 sequence (whole entry): T1 sequence (Q9NPI1 whole entry)
Nature of the data set: Binding affinity to BRD7 in human HuT78 cells nuclear and chromatin extracts at 10 uM incubated for 45 mins by mass spectrometry based chemoproteomic binding assay. It is filed as cell-based.

Data set [13] has as its target T3, Bromodomain-containing protein 9.
Description: Binding affinity to human partial length BRD9 (R130 to V259 residues) expressed in bacterial expression system by BROMOscan assay
Data set [14] addresses B-cell CLL/lymphoma 7 protein family member A (Homo sapiens) (UniProt Q4VC05). The experiment in a line: Binding affinity to BCL7A in human HuT78 cells nuclear and chromatin extracts at 10 uM incubated for 45 mins by mass spectrometry based chemoproteomic binding assay. The format is cell-based.
Data set [15] is filed under the species Homo sapiens. Nature of the data set: Selectivity index, ratio of IC50 for binding affinity to BRD4 (1) (unknown origin) N-terminal bromodomain to IC50 for binding affinity to BRD9 (unknown origin) N-terminal bromodomain.
Data set [16] is filed under the species Homo sapiens. The experiment in a line: Selectivity index, ratio of IC50 for binding affinity to PCAF (unknown origin) N-terminal bromodomain to IC50 for binding affinity to BRD9 (unknown origin) N-terminal bromodomain.
For data set [17], the target named is T1, Bromodomain-containing protein 7. The experiment in a line: Binding affinity to BRD7 (unknown origin).
Data set [18] addresses T3, Bromodomain-containing protein 9. This is another data set of the same source.
Data set [19] is described as follows: Drug distribution in human HeLa cells assessed as intracellular influx/efflux ratio by mass spectrometry. The format is ADME, cell-based.

As usually defined, the Ki is a dissociation constant, usually derived from enzyme kinetics or from competition with a known ligand. Read a high Ki as a looser hold on the target. For orientation: kinetic solubility means the concentration staying in solution when a stock, usually in DMSO, is diluted into the medium. As a reminder, the IC50 is the concentration needed to halve the response being measured. A high value points to lower potency. What is called chromatographic logD is lipophilicity estimated from chromatographic retention. High values mean higher lipophilicity, low ones lower lipophilicity. The term Kd denotes a measure of binding affinity in units of concentration. A lower Kd goes with higher affinity.

Chain of Protein polybromo-1 (Homo sapiens) (Q86U86 whole entry): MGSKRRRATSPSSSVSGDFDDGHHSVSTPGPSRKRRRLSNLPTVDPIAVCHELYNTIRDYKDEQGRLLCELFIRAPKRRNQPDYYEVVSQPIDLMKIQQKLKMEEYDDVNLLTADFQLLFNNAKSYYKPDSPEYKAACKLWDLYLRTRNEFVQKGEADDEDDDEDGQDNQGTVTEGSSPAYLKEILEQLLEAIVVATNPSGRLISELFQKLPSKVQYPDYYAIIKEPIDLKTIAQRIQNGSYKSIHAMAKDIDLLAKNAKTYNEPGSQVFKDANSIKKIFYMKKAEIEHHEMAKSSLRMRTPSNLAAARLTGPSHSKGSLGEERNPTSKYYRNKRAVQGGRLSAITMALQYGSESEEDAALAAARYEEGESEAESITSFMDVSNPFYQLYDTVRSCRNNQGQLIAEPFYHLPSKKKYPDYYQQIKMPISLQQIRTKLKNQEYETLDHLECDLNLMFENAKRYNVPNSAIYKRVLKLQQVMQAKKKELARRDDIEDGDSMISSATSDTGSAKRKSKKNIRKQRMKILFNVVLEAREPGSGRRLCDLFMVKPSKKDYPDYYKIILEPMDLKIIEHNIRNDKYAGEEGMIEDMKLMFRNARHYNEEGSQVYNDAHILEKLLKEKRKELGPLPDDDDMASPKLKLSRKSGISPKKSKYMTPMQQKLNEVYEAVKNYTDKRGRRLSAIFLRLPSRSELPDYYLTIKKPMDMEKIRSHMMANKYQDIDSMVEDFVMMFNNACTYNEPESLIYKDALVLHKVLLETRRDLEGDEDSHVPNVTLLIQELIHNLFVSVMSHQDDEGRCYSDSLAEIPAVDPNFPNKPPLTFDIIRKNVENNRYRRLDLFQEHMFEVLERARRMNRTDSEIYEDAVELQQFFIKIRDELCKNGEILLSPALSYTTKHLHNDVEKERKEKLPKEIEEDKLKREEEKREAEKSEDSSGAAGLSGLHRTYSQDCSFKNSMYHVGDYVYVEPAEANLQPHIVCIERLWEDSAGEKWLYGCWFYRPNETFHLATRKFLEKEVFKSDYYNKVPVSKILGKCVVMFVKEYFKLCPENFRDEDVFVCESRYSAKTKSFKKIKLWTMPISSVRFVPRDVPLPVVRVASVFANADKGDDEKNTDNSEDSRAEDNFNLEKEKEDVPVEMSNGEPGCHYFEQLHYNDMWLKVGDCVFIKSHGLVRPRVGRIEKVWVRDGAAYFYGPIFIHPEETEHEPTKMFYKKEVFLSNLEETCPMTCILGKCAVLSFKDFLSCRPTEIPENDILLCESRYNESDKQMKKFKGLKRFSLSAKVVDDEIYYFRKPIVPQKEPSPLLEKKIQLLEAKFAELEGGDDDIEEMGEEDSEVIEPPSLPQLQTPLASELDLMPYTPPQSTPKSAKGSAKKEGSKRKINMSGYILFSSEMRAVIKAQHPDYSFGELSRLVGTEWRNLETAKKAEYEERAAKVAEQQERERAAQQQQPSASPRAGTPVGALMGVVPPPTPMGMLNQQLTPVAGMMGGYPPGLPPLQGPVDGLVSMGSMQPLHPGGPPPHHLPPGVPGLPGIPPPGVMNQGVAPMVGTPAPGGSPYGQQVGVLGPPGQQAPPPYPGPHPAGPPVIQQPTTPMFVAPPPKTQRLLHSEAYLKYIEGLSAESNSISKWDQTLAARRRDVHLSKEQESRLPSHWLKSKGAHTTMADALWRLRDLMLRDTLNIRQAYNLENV
Chain of B-cell CLL/lymphoma 7 protein family member A (Homo sapiens) (Q4VC05 whole entry): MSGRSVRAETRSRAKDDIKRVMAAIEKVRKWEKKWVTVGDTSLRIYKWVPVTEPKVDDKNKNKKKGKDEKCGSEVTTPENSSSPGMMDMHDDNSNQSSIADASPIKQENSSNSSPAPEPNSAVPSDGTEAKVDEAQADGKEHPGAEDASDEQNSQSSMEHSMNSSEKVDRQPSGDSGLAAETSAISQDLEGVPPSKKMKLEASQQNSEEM
Chain of SWI/SNF-related matrix-associated actin-dependent regulator of chromatin subfamily A member 2 (Homo sapiens) (P51531 whole entry): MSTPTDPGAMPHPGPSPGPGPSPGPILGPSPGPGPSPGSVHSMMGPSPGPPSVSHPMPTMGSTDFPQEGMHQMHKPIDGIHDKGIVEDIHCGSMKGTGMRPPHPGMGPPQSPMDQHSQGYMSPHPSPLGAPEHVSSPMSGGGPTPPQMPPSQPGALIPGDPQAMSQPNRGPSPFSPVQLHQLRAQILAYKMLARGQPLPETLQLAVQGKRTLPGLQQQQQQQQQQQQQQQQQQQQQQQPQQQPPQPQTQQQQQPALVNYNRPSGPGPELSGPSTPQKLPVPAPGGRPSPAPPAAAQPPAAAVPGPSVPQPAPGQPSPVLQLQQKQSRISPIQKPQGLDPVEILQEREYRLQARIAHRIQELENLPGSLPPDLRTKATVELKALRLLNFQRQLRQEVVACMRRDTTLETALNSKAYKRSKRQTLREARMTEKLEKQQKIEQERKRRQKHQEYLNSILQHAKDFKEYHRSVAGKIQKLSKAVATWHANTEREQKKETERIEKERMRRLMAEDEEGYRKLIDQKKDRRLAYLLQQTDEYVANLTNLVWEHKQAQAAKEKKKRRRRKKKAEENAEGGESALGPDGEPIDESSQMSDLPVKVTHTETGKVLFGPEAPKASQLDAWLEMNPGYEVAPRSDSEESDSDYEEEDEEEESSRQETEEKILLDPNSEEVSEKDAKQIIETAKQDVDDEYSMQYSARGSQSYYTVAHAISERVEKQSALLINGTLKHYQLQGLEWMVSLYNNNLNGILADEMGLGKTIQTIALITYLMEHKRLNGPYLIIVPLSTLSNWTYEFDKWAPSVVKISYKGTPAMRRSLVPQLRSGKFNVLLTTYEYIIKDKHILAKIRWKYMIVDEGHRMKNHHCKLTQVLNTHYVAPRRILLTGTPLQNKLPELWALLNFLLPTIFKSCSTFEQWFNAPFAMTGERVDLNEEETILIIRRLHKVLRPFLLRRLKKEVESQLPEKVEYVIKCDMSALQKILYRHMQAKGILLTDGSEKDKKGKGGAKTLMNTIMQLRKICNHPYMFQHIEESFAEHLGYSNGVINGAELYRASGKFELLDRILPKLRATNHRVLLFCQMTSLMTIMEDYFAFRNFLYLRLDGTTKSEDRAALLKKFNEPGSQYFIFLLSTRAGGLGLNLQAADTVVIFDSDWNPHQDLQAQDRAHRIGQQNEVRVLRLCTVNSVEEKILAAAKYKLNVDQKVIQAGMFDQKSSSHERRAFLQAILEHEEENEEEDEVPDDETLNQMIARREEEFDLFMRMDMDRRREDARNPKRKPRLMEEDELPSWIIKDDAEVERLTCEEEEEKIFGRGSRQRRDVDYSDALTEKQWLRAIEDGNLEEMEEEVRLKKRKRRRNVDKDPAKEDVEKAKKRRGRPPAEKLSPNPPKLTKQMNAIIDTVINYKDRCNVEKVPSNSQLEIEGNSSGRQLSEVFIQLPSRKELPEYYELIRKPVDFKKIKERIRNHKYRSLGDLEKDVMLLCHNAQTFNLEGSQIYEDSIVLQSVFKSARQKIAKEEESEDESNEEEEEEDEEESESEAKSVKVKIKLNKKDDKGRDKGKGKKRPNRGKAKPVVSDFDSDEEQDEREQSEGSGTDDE

Turning to `Cc1c(NCc2ccccc2N2CCN(C)CC2)cnn(C)c1=O`, the inhibitory constant (Ki) in data set [1] was 25.1 nM; on Peregrin, 251 nM; in [11], 25100 nM; in data set [13] it was 39.8 nM. The kinetic solubility in data set [2] was found to be 178 µg/mL (≈ 544 µM). Further, the 50% inhibitory concentration (IC50) in [3] was above 50100 nM; in data set [5], 200 nM. For the same compound, in [4], the Papp was determined as 33 ×10⁻⁶ cm/s. Moreover, the chromatographic logD in data set [6] is 1.6. Moreover, the outcome in [7], in data set [8], in data set [9], in data set [10], in [12] and in data set [14] was Active. In the data set listed under Homo sapiens [15], the fold selectivity was above 250.

Regarding `Cn1ncc(NCc2ccccc2)c(Cl)c1=O`, the IC50 is 20000 nM in data set [3] and 2000 nM in data set [5]. In addition, the chromatographic logD in [6] came to 3.2. Moreover, the results for the fold selectivity in the data set filed under Homo sapiens [16] and in the data set filed under Homo sapiens [15] were 6 and 10, respectively.

`C/C=C/Cn1cc(-c2cc(OC)c(C(=O)N3CCOCC3)cc2OC)c2cc[nH]c2c1=O`: the Kd is 100 nM in data set [17] and 2 nM in data set [18].

On to `CCCCc1c(NCc2ccccc2N2CCN(C)CC2)cnn(C)c1=O`, for which the inhibitory constant (Ki) in [1] is 501 nM; at Peregrin it was above 31600 nM; in [11], above 31600 nM; in data set [13] it was 63.1 nM. This compound also came in with a kinetic solubility in [2] of at least 228 µg/mL. Also, in data set [4], the Papp was found to be 25 ×10⁻⁶ cm/s. The compound further displayed a chromatographic logD in [6] of 3.5. Further, in [19], the Ratio worked out at 0.52.
